Measurements: article PMC7203973 (ACS Omega, 2020)

Tests used:
[1] = cited from earlier work
[2] = cited from earlier work; remark: listed apart in the source
Permeability by PAMPA = type: in vitro ADME
[3] = cited from earlier work; remark: listed apart in the source
[4] = cited from earlier work; remark: listed apart in the source
[5] = marketed drugs; cited from earlier work

Compound: C[C@]12CC[C@H]3[C@@H](CCC4=CC(=O)CC[C@@]43C)[C@@H]1CC[C@@H]2O [testosterone]
- partition coefficient (log P), reported value [1]: around 3.28
- permeability (log Pe), reported results [2]: −3.5 to −4.9
- Papp at 5 h, 25 μM (Permeability by PAMPA): 102 ×10⁻⁶ cm/s

Compound: CO[C@H]1/C=C/O[C@@]2(C)Oc3c(C)c(O)c4c(O)c(c(/C=N/N5CCN(C)CC5)c(O)c4c3C2=O)NC(=O)/C(C)=C\C=C\[C@H](C)[C@H](O)[C@@H](C)[C@@H](O)[C@@H](C)[C@H](OC(C)=O)[C@@H]1C [rifampicin]
- plasma protein binding, reported results [3]: 82–92%

Compound: CCN(CC)CCCC(C)Nc1ccnc2cc(Cl)ccc12 (stereo not drawn) [chloroquine]
- blood-to-plasma ratio (KRBC/Plasma), reported in the literature [4]: 8.5 ± 0.1

Compound: CCOC(=O)[C@H](CCc1ccccc1)N[C@@H](C)C(=O)N1CCC[C@H]1C(=O)O [enalapril]
- stability in rat plasma versus human plasma [5]: very less stable in rat plasma but more stable in human plasma

Compound: NS(=O)(=O)c1cc(C2(O)NC(=O)c3ccccc32)ccc1Cl (stereo not drawn) [chlorthalidone]
- blood-to-plasma ratio (KRBC/Plasma), reported in the literature [4]: 20.0 ± 0.3

Compound: CO[C@H]1C[C@@H]2CC[C@@H](C)[C@@](O)(O2)C(=O)C(=O)N2CCCC[C@H]2C(=O)O[C@H]([C@H](C)C[C@@H]2CC[C@@H](O)[C@H](OC)C2)CC(=O)[C@H](C)/C=C(\C)[C@@H](O)[C@@H](OC)C(=O)[C@H](C)C[C@H](C)/C=C/C=C/C=C/1C [rapamycin]
- blood-to-plasma ratio (KRBC/Plasma), reported in the literature [4]: 3.5 ± 0.5

Compound: CCN(CC)CCOC(=O)c1ccc(N)cc1 [procaine]
- stability in rat plasma versus human plasma [5]: vice verse
